Measurements from publication PMC4807618 (Angewandte Chemie (International ed. in English), 2016).

How the values were obtained:
[1] = system: NA activity of oseltamivir-susceptible (wild-type) H1N1 influenza virus A/Netherlands/049/2008; format: biochemical
[2] = system: NA activity of oseltamivir-susceptible (wild-type) H1N1 influenza virus A/Brisbane/59/2007; format: biochemical

Compound	effect on NA activity [1]	effect on NA activity [2]
CCN[C@H]1C[C@H](C)S(=O)(=O)c2sc(S(N)(=O)=O)cc21 [Dorzolamide, dorzolamide]	no effect	no effect
CCn1cc(C(=O)O)c(=O)c2ccc(C)nc21 [Nalidixic acid, nalidixic acid]	no effect	no effect
